From ChEMBL document CHEMBL4507284, “Data for DCP probe BI-1230” (2021)
Active and inactive are the calls of the source.

How the values were obtained:
[1] = molecular target: NS3 protease (Hepacivirus C, UniProt C1KIQ2); assay: Enzymatic assay; parameters: species or system Hepacivirus hominis
[2] = test system: Tyrosine-protein kinase ABL1 (Homo sapiens), P00519 [Q252H]; conditions: Compound concentration 1000.0 nM
[3] = molecular target: Atypical kinase COQ8A, mitochondrial (Homo sapiens) (UniProt Q8NI60); conditions: Compound concentration 1000.0 nM
[4] = molecular target: RAC-gamma serine/threonine-protein kinase (Homo sapiens) (UniProt Q9Y243); conditions: Compound concentration 1000.0 nM
[5] = molecular target: ALK tyrosine kinase receptor (Homo sapiens) (UniProt Q9UM73); conditions: Compound concentration 1000.0 nM
[6] = molecular target: Aurora kinase B (Homo sapiens) (UniProt Q96GD4); conditions: Compound concentration 1000.0 nM
[7] = molecular target: Cyclin-dependent kinase 3 (Homo sapiens) (UniProt Q00526); conditions: Compound concentration 1000.0 nM
[8] = molecular target: Serine/threonine-protein kinase DCLK3 (Homo sapiens) (UniProt Q9C098); conditions: Compound concentration 1000.0 nM
[9] = molecular target: Dual specificity tyrosine-phosphorylation-regulated kinase 1A (Homo sapiens) (UniProt Q13627); conditions: Compound concentration 1000.0 nM
[10] = test system: Epidermal growth factor receptor (Homo sapiens), P00533 [UNDEFINED MUTATION]; conditions: Compound concentration 1000.0 nM
[11] = molecular target: Ephrin type-A receptor 6 (Homo sapiens) (UniProt Q9UF33); conditions: Compound concentration 1000.0 nM
[12] = molecular target: Ephrin type-A receptor 8 (Homo sapiens) (UniProt P29322); conditions: Compound concentration 1000.0 nM
[13] = test system: eIF-2-alpha kinase GCN2 (Homo sapiens), Q9P2K8 [S808G]; conditions: Compound concentration 1000.0 nM
[14] = molecular target: Tyrosine-protein kinase JAK1 (Homo sapiens) (UniProt P23458); conditions: Compound concentration 1000.0 nM
[15] = test system: Mast/stem cell growth factor receptor Kit (Homo sapiens), P10721 [V559D,T670I]; conditions: Compound concentration 1000.0 nM
[16] = molecular target: Mitogen-activated protein kinase kinase kinase 2 (Homo sapiens) (UniProt Q9Y2U5); conditions: Compound concentration 1000.0 nM
[17] = molecular target: Mitogen-activated protein kinase kinase kinase 3 (Homo sapiens) (UniProt Q99759); conditions: Compound concentration 1000.0 nM
[18] = molecular target: Serine/threonine-protein kinase MARK2 (Homo sapiens) (UniProt Q7KZI7); conditions: Compound concentration 1000.0 nM
[19] = test system: Hepatocyte growth factor receptor (Homo sapiens), P08581 [Y1235D]; conditions: Compound concentration 1000.0 nM
[20] = molecular target: Misshapen-like kinase 1 (Homo sapiens) (UniProt Q8N4C8); conditions: Compound concentration 1000.0 nM
[21] = molecular target: MAP kinase-interacting serine/threonine-protein kinase 1 (Homo sapiens) (UniProt Q9BUB5); conditions: Compound concentration 1000.0 nM
[22] = molecular target: Mitogen-activated protein kinase kinase kinase 9 (Homo sapiens) (UniProt P80192); conditions: Compound concentration 1000.0 nM
[23] = molecular target: Mitogen-activated protein kinase kinase kinase 10 (Homo sapiens) (UniProt Q02779); conditions: Compound concentration 1000.0 nM
[24] = molecular target: Serine/threonine-protein kinase MRCK alpha (Homo sapiens) (UniProt Q5VT25); conditions: Compound concentration 1000.0 nM
[25] = molecular target: Serine/threonine-protein kinase 24 (Homo sapiens) (UniProt Q9Y6E0); conditions: Compound concentration 1000.0 nM
[26] = molecular target: Serine/threonine-protein kinase 26 (Homo sapiens) (UniProt Q9P289); conditions: Compound concentration 1000.0 nM
[27] = molecular target: Mitogen-activated protein kinase kinase kinase 14 (Homo sapiens) (UniProt Q99558); conditions: Compound concentration 1000.0 nM
[28] = molecular target: Platelet-derived growth factor receptor alpha (Homo sapiens) (UniProt P16234); conditions: Compound concentration 1000.0 nM
[29] = test system: Phosphatidylinositol 4,5-bisphosphate 3-kinase catalytic subunit alpha isoform (Homo sapiens), P42336 [E545A]; conditions: Compound concentration 1000.0 nM
[30] = molecular target: cAMP-dependent protein kinase catalytic subunit beta (Homo sapiens) (UniProt P22694); conditions: Compound concentration 1000.0 nM
[31] = molecular target: Receptor-interacting serine/threonine-protein kinase 4 (Homo sapiens) (UniProt P57078); conditions: Compound concentration 1000.0 nM
[32] = molecular target: Proto-oncogene tyrosine-protein kinase ROS (Homo sapiens) (UniProt P08922); conditions: Compound concentration 1000.0 nM
[33] = molecular target: Ribosomal protein S6 kinase alpha-4 (Homo sapiens) (UniProt O75676); conditions: Compound concentration 1000.0 nM
[34] = molecular target: Ribosomal protein S6 kinase alpha-3 (Homo sapiens) (UniProt P51812); conditions: Compound concentration 1000.0 nM
[35] = molecular target: Ribosomal protein S6 kinase alpha-6 (Homo sapiens) (UniProt Q9UK32); conditions: Compound concentration 1000.0 nM
[36] = molecular target: Serine/threonine-protein kinase SBK1 (Homo sapiens) (UniProt Q52WX2); conditions: Compound concentration 1000.0 nM
[37] = molecular target: Serine/threonine-protein kinase Sgk2 (Homo sapiens) (UniProt Q9HBY8); conditions: Compound concentration 1000.0 nM
[38] = molecular target: NUAK family SNF1-like kinase 2 (Homo sapiens) (UniProt Q9H093); conditions: Compound concentration 1000.0 nM
[39] = molecular target: SNF-related serine/threonine-protein kinase (Homo sapiens) (UniProt Q9NRH2); conditions: Compound concentration 1000.0 nM
[40] = molecular target: Serine/threonine-protein kinase 16 (Homo sapiens) (UniProt O75716); conditions: Compound concentration 1000.0 nM
[41] = molecular target: Serine/threonine-protein kinase WNK2 (Homo sapiens) (UniProt Q9Y3S1); conditions: Compound concentration 1000.0 nM
[42] = molecular target: Mu-type opioid receptor (Homo sapiens) (UniProt P35372); conditions: Compound concentration 10.0 uM
[43] = molecular target: Alpha-2B adrenergic receptor (Homo sapiens) (UniProt P18089); conditions: Compound concentration 10.0 uM
[44] = molecular target: Alpha-2C adrenergic receptor (Homo sapiens) (UniProt P18825); conditions: Compound concentration 10.0 uM
[45] = molecular target: Beta-3 adrenergic receptor (Homo sapiens, UniProt P13945); conditions: Compound concentration 10.0 uM

Atypical kinase COQ8A, mitochondrial (Homo sapiens), sequence (Q8NI60 163-647 limits assumed): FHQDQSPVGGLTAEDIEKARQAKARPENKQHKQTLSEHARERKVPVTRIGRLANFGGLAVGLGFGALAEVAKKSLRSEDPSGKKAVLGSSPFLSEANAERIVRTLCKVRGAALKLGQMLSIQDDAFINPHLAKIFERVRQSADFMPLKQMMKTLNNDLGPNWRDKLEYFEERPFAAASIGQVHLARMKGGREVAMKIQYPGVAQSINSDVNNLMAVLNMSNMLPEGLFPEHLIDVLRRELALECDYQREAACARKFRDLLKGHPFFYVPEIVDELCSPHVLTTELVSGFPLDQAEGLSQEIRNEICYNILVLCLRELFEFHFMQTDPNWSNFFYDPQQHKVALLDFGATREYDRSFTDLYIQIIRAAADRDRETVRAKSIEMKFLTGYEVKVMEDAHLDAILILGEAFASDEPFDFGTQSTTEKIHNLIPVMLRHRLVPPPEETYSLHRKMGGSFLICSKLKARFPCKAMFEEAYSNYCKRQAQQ
Alpha-2C adrenergic receptor (Homo sapiens), sequence (P18825 whole entry): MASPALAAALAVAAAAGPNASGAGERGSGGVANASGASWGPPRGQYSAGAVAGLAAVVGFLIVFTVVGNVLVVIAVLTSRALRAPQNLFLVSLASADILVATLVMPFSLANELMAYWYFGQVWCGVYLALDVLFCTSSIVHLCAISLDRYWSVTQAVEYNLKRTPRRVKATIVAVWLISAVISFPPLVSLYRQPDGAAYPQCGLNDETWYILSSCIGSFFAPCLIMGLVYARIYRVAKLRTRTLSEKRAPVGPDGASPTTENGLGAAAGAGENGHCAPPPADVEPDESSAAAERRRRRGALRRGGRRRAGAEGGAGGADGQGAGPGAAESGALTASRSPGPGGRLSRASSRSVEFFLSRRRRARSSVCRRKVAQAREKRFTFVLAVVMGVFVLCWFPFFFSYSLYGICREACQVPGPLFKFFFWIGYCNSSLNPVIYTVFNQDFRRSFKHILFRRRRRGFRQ
Serine/threonine-protein kinase SBK1 (Homo sapiens), sequence (Q52WX2 whole entry): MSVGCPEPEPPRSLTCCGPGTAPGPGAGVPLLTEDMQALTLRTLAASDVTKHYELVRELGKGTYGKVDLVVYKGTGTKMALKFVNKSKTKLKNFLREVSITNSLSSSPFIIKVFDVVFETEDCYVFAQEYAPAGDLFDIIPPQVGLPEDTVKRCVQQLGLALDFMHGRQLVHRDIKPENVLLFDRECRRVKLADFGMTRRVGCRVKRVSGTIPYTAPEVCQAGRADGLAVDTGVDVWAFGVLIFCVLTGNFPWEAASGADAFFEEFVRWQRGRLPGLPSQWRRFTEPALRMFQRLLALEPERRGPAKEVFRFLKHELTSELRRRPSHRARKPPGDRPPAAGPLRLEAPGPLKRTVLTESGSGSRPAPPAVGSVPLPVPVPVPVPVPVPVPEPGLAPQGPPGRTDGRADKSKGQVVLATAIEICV
Mitogen-activated protein kinase kinase kinase 3 (Homo sapiens), sequence (Q99759 whole entry): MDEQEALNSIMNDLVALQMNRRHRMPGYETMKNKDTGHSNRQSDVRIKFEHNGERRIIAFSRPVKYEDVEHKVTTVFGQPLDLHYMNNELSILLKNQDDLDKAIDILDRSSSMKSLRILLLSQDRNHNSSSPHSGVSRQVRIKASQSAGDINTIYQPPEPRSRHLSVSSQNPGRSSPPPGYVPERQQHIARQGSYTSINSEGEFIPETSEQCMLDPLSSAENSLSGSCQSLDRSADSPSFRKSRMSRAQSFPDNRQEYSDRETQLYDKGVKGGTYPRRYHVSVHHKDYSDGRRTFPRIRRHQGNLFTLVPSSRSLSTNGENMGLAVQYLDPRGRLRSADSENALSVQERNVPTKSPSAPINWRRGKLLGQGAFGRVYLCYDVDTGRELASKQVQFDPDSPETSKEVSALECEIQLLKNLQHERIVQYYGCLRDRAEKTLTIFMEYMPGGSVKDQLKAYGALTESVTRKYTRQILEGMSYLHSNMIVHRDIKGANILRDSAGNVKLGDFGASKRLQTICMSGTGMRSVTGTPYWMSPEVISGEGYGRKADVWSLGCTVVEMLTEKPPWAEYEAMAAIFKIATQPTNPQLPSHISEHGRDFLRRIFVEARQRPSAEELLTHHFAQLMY
Platelet-derived growth factor receptor alpha (Homo sapiens), sequence (P16234 whole entry, canonical isoform): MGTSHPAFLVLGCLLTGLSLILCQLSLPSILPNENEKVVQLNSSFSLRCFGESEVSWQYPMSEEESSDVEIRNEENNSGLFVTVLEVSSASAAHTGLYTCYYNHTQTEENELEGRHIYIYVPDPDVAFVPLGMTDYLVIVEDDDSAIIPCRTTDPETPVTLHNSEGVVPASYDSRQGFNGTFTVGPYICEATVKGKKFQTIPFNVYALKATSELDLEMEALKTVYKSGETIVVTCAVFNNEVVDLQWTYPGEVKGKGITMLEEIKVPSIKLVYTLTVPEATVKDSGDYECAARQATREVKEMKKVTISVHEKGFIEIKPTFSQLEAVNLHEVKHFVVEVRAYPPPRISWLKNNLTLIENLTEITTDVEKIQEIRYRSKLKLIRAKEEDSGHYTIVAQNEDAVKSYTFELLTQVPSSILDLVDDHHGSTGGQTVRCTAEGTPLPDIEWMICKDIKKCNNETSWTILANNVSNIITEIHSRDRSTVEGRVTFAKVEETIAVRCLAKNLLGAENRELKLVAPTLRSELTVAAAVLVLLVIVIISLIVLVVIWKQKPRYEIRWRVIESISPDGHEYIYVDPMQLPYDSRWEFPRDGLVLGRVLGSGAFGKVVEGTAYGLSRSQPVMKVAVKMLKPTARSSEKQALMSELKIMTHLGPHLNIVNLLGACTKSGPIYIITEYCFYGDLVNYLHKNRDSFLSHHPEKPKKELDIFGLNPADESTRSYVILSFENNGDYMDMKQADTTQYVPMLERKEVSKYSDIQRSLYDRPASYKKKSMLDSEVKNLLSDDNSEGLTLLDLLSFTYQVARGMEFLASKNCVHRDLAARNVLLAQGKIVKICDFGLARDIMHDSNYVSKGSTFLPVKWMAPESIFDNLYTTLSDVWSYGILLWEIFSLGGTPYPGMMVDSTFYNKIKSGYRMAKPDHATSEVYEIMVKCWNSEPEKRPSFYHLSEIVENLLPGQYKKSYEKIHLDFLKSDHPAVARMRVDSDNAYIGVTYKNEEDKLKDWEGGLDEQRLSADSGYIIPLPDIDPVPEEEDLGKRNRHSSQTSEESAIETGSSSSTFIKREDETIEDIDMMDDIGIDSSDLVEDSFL
Mitogen-activated protein kinase kinase kinase 9 (Homo sapiens), sequence (P80192 whole entry, looked up): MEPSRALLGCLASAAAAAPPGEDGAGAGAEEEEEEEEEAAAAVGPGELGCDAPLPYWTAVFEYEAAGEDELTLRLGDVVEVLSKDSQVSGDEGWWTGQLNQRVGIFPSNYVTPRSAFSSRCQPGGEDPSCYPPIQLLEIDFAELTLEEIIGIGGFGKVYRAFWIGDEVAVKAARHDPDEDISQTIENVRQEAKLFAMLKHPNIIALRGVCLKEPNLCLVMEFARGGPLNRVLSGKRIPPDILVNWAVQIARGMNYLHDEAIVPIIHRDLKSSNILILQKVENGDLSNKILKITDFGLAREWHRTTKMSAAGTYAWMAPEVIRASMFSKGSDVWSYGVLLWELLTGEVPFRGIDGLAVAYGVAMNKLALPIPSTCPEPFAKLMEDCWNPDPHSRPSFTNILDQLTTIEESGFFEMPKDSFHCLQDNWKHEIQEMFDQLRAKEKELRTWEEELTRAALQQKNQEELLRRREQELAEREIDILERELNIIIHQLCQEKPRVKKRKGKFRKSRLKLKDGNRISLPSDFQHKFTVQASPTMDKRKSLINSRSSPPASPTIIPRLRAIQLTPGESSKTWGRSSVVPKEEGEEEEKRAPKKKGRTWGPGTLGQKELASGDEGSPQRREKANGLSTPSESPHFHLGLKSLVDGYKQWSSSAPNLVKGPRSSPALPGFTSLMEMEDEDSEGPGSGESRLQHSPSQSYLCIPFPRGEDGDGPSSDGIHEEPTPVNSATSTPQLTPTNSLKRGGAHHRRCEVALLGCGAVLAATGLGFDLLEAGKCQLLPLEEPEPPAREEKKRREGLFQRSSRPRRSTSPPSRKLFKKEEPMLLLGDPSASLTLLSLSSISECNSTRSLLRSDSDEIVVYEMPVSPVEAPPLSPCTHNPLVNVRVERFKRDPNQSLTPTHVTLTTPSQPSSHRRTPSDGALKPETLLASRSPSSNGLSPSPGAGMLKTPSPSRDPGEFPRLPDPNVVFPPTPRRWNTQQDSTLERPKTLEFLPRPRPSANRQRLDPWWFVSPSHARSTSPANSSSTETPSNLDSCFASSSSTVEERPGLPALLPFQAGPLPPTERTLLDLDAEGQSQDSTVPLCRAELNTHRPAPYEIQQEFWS
NUAK family SNF1-like kinase 2 (Homo sapiens), sequence (Q9H093 whole entry): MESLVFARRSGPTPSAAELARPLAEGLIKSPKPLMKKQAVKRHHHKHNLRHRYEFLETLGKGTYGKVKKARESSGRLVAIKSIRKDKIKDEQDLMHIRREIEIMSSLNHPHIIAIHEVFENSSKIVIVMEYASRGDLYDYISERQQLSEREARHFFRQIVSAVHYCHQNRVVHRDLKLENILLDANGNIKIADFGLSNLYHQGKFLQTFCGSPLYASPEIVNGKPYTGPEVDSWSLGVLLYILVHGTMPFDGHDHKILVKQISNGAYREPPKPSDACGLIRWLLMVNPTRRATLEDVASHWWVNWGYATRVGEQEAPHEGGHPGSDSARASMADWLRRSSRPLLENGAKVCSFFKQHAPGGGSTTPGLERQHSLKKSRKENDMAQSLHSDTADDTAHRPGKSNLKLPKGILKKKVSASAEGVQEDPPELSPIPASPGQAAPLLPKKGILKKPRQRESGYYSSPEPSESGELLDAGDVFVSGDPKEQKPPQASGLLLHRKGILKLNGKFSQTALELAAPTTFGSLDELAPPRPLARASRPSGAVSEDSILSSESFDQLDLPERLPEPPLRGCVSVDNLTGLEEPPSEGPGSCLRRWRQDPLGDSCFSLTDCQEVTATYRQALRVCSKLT
NS3 protease, sequence (C1KIQ2 whole entry): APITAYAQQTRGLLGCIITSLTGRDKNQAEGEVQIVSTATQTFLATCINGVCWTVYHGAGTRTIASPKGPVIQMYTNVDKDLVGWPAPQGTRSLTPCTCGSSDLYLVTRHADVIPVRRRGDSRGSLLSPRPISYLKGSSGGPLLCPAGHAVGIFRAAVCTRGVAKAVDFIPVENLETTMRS

O=C(N[C@H]1CCCCC/C=C\C2C[C@@]2(C(=O)O)NC(=O)[C@@H]2C[C@@H](Oc3ccncc3)CN2C1=O)OC1CCCC1 (stereo not given in full) [BI 1675]
4870 nM (not active): IC50 [1]
inactive: residual activity [2] 85% | residual activity [3] 90% | residual activity [4] 94% | residual activity [5] 100% | residual activity [6] 89% | residual activity [7] 100% | residual activity [8] 100% | residual activity [9] 84% | residual activity [10] 78% | residual activity [11] 100% | residual activity [12] 100% | residual activity [13] 100% | residual activity [14] 96% | residual activity [15] 100% | residual activity [16] 69% | residual activity [17] 89% | residual activity [18] 81% | residual activity [19] 81% | residual activity [20] 100% | residual activity [21] 79% | residual activity [22] 97% | residual activity [23] 100% | residual activity [24] 87% | residual activity [25] 81% | residual activity [26] 97% | residual activity [27] 100% | residual activity [28] 99% | residual activity [29] 100% | residual activity [30] 100% | residual activity [31] 94% | residual activity [32] 92% | residual activity [33] 100% | residual activity [34] 100% | residual activity [35] 60% | residual activity [36] 100% | residual activity [37] 100% | residual activity [38] 100% | residual activity [39] 97% | residual activity [40] 79% | residual activity [41] 100% | inhibition [42] -8.64% | inhibition [43] 8.15% | inhibition [44] -4.47% | inhibition [45] -9.47%

COc1ccc2c(O[C@@H]3C[C@H]4C(=O)N[C@]5(C(=O)O)CC5/C=C\CCCCC[C@H](NC(=O)OC5CCCC5)C(=O)N4C3)cc(-c3csc(NC(=O)C(C)C)n3)nc2c1C (stereo not given in full) [BI 1230]
active: IC50 [1] 6.7 nM | inhibition [43] 60.3% | inhibition [44] 56.8% | inhibition [45] 57.4%
inactive: residual activity [2] 80% | residual activity [3] 100% | residual activity [4] 93% | residual activity [5] 74% | residual activity [6] 91% | residual activity [7] 100% | residual activity [8] 96% | residual activity [9] 79% | residual activity [10] 98% | residual activity [11] 100% | residual activity [12] 100% | residual activity [13] 100% | residual activity [14] 100% | residual activity [15] 76% | residual activity [16] 100% | residual activity [17] 79% | residual activity [18] 100% | residual activity [19] 100% | residual activity [20] 62% | residual activity [21] 79% | residual activity [22] 100% | residual activity [23] 93% | residual activity [24] 100% | residual activity [25] 100% | residual activity [26] 95% | residual activity [27] 89% | residual activity [28] 84% | residual activity [29] 100% | residual activity [30] 100% | residual activity [31] 65% | residual activity [32] 100% | residual activity [33] 96% | residual activity [34] 100% | residual activity [35] 92% | residual activity [36] 98% | residual activity [37] 87% | residual activity [38] 91% | residual activity [39] 80% | residual activity [40] 100% | residual activity [41] 87% | inhibition [42] 16.6%
